The source of these data is patent US12172983B2, “EGFR inhibitors” (Blueprint Medicines Corporation, priority 2019, dated 2024).

Structures are written as SMILES. pIC50: −log10 of the molar value. Where two headings read alike, the source gives them in different places.

For assay [1], the system named is phosphorylation of EGFR (Tyr1068) in NCI-H1975 cell line that harbors the EGFR L858R T790M mutations. Put plainly: NCI-H1975 pEGFR AlphaLISA assay. The class given is cell-based. To be noted: 4-5 hours incubation, read-out: Ext pEGFR H1975. How it is done: Inhibitory effects of the compounds of the disclosure were evaluated in cellular assays that measure level of intracellular phosphorylation of EGFR in NCI-H1975 cell line that harbors the EGFR L858R T790M mutations (ATCC, CRL-5908) using AlphaLISA sureFire ultra p-EGFR (Tyr1068) assay kit (PerkinElmer, ALSU-PEGFR-A50K). The NCI-H1975 cells were seeded at 12.5K/well in 22 μL into 384 well opti plate (PerkinElmer, 6007299) and adhering overnight at 37 C/5% CO2. On the next day, the test compounds and DMSO control were added into H1975 cell plate followed by incubation at 37 C/5% CO2 for 4-5 hours. The cells were then spin down in the 384-well plate and lysed with 10 μL of 1×AlphaLISA lysis buffer followed by shaking at 600 rpm for 10 minutes at room temperature. After that, 5 μL of an acceptor bead mix was added to each well followed by incubation at room temperature for 1.5-2 h in dark. Then 5 μL of a donor bead mix was added to each well followed by overnight incubation at room temperature in dark. On the next day, the plate was read at a compatible plate reader to obtain pEGFR signal. Percent of pEGFR inhibition was plotted against log concentration of compounds to generate IC50 values.
(In general: Bead proximity is the source of the signal in Alpha formats.)

Another assay has as its target T1, EGFR (L858R T790M C797S) (Homo sapiens, UniProt P00533, C797S/L858R/T790M).
T1 construct: purchased SignalChem E10-122VG
Put plainly: Biochemical EGFR inhibition assay (Caliper mobility shift), EGFR LRTMCS mutant. To be noted: inhibitory activity against EGFR LRTMCS mutant; apparent IC50; read-out: Ext Enz LRTMCS. As for the experimental part: Reactions proceeded until between 10% to 20% total peptides were phosphorylated at room temperature (25° C.) and were terminated with 35 mM 2,2′,2″,2′″-(ethane-1,2-diyldinitrilo)tetraacetic acid (EDTA). Product was detected using the Caliper mobility shift detection method where the phosphorylated peptide (product) and substrate were electrophoretically separated and measured. Percent activity was plotted against log concentration of compound and points to generate an apparent IC50.

Setting [2] is: Homo sapiens, NCI-H1975, inhibition of phosphorylation of mutant EGFR in NCI-H1975 cells.
Where [3] appears, read: inhibition of phosphorylation of mutant EGFR in NCI-H1975 cells.

T1 sequence (P00533 25-1210 T790M/C797S/L858R): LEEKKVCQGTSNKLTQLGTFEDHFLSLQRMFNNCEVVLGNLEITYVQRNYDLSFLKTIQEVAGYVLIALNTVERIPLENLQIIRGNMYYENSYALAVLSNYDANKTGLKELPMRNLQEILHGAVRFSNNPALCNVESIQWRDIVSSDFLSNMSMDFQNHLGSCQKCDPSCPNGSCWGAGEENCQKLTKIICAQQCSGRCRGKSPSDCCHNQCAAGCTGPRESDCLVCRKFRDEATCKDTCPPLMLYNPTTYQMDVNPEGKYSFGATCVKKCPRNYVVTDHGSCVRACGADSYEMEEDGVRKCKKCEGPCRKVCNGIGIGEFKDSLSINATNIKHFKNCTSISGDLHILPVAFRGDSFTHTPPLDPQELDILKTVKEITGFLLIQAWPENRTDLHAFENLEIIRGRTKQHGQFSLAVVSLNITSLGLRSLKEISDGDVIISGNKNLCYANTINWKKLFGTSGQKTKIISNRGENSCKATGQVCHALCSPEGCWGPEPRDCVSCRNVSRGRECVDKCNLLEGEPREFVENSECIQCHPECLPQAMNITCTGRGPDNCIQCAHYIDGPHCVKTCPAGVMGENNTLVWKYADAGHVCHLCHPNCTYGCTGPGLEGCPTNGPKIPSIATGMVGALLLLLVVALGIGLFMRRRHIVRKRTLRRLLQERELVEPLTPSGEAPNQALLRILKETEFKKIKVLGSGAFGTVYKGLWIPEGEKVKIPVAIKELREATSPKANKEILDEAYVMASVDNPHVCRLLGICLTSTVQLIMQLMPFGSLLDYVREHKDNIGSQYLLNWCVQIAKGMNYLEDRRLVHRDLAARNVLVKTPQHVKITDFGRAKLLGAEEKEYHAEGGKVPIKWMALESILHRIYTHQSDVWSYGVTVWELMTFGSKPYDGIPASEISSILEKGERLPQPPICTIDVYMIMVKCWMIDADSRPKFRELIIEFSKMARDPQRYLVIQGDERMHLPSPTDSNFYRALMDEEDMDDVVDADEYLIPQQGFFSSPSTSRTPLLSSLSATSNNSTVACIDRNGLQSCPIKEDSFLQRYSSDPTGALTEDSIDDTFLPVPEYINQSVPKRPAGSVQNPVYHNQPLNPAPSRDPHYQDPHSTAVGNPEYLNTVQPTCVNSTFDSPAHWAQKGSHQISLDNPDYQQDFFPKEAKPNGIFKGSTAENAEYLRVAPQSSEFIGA

For the compound `CC(C)c1ccc(N2CC(CS(C)(=O)=O)C2)c2cnc(Nc3ccnc(N4CC5COC(C5)C4)n3)cc12` (racemic) [Compound 13, (rac)-8-[3-(methanesulfonylmethyl)azetidin-1-yl]-N-{2-[6-oxa-3-azabicyclo[3.2.1]octan-3-yl]pyrimidin-4-yl}-5-(propan-2-yl)isoquinolin-3-amine], the pIC50 in assay [1] (setting [2]) was 7.30 to 7.52; at EGFR (L858R T790M C797S), ≥ 7.82.
On to `CC(C)c1ccc(N2CC(CS(C)(=O)=O)C2)c2cnc(Nc3ccnc(N4CCCC(O)CC4)n3)cc12` (racemic) [Compound 21, (rac)-1-[4-({8-[3-(methanesulfonylmethyl)azetidin-1-yl]-5-(propan-2-yl)isoquinolin-3-yl}amino)pyrimidin-2-yl]azepan-4-ol], for which the pIC50 in assay [1] (setting [2]) was 7.30 to 7.52; at EGFR (L858R T790M C797S), 7.52 to 7.70.
On the same counts, the results for `CO[C@@H]1[C@H](F)CN(c2nccc(Nc3cc4c(C(C)C)ccc(N5CC(CS(C)(=O)=O)C5)c4cn3)n2)C[C@@H]1O` (racemic) [Compound 146, (3S,4S,5R)-5-fluoro-1-(4-((5-isopropyl-8-(3-((methylsulfonyl)methyl)azetidin-1-yl)isoquinolin-3-yl)amino)pyrimidin-2-yl)-4-methoxypiperidin-3-ol and (3R,4R,5S)-5-fluoro-1-(4-((5-isopropyl-8-(3-((methylsulfonyl)methyl)azetidin-1-yl)isoquinolin-3-yl)amino)pyrimidin-2-yl)-4-methoxypiperidin-3-ol] are 7.70 to 8.00 and 7.70 to 7.82.
For `CO[C@H]1CN(c2nccc(Nc3cc4c(C(C)C)ccc(N5CC(CS(C)(=O)=O)C5)c4cn3)n2)C[C@@H](F)[C@H]1O` (racemic) [Compound 147, (3S,4R,5R)-3-fluoro-1-(4-((5-isopropyl-8-(3-((methylsulfonyl)methyl)azetidin-1-yl)isoquinolin-3-yl)amino)pyrimidin-2-yl)-5-methoxypiperidin-4-ol and (3R,4S,5S)-3-fluoro-1-(4-((5-isopropyl-8-(3-((methylsulfonyl)methyl)azetidin-1-yl)isoquinolin-3-yl)amino)pyrimidin-2-yl)-5-methoxypiperidin-4-ol], the pIC50 is 7.70 to 8.00 in assay [1] (setting [2]) and ≥ 7.82 on EGFR (L858R T790M C797S).
In the case of `CC(C)c1ccc(N2CC(CS(C)(=O)=O)C2)c2cnc(Nc3ccnc(N4CC[C@H](O)[C@@](C)(F)C4)n3)cc12` (single isomer, unassigned) [Compound 61, (3S,4S)-3-fluoro-1-[4-({8-[3-(methanesulfonylmethyl)azetidin-1-yl]-5-(propan-2-yl)isoquinolin-3-yl}amino)pyrimidin-2-yl]-3-methylpiperidin-4-ol or (3R,4R)-3-fluoro-1-[4-({8-[3-(methanesulfonylmethyl)azetidin-1-yl]-5-(propan-2-yl)isoquinolin-3-yl}amino)pyrimidin-2-yl]-3-methylpiperidin-4-ol], in assay [1] (setting [2]), the pIC50 is 7.30 to 7.52.
On to `CC(C)c1cnc(N2CC(CS(C)(=O)=O)C2)c2cnc(Nc3ccnc(N4CC[C@@H](O)[C@@](C)(F)C4)n3)cc12` (single isomer, unassigned) [Compound 67], for which the pIC50 in assay [1] (setting [2]) was ≥ 8.00.
Turning to `CC(C)c1ccc(N2C[C@H](CS(C)(=O)=O)[C@H]2C)c2cnc(Nc3ccnc(N4CC[C@H](O)[C@@](C)(F)C4)n3)cc12` (single isomer, unassigned) [Compound 119, (3S,4S)-3-fluoro-1-[4-({8-[(2R,3S)-3-(methanesulfonylmethyl)-2-methylazetidin-1-yl]-5-(propan-2-yl)isoquinolin-3-yl}amino)pyrimidin-2-yl]-3-methylpiperidin-4-ol or (3R,4R)-3-fluoro-1-[4-({8-[(2R,3S)-3-(methanesulfonylmethyl)-2-methylazetidin-1-yl]-5-(propan-2-yl)isoquinolin-3-yl}amino)pyrimidin-2-yl]-3-methylpiperidin-4-ol], in assay [1] (setting [2]), the pIC50 was 7.52 to 7.70.
As to `CC(C)c1ccc(N2C[C@H](CS(C)(=O)=O)[C@H]2C)c2cnc(Nc3ccnc(N4CC[C@H](O)[C@@](C)(F)C4)n3)cc12` (single isomer, unassigned) [Compound 120, (3R,4R)-3-fluoro-1-[4-({8-[(2R,3S)-3-(methanesulfonylmethyl)-2-methylazetidin-1-yl]-5-(propan-2-yl)isoquinolin-3-yl}amino)pyrimidin-2-yl]-3-methylpiperidin-4-ol or (3S,4S)-3-fluoro-1-[4-({8-[(2R,3S)-3-(methanesulfonylmethyl)-2-methylazetidin-1-yl]-5-(propan-2-yl)isoquinolin-3-yl}amino)pyrimidin-2-yl]-3-methylpiperidin-4-ol], the pIC50 in assay [1] (setting [3]) was 7.70 to 8.00.
As for `CO[C@@H]1CCN(c2nccc(Nc3cc4c(C(C)C)ccc(N5C[C@H](CS(C)(=O)=O)[C@H]5C)c4cn3)n2)C[C@H]1F` (single isomer, unassigned) [Compound 278, N-{2-[(3R,4R)-3-fluoro-4-methoxypiperidin-1-yl]pyrimidin-4-yl}-8-[(2R,3S)-3-(methanesulfonylmethyl)-2-methylazetidin-1-yl]-5-(propan-2-yl)isoquinolin-3-amine or N-{2-[(3S,4S)-3-fluoro-4-methoxypiperidin-1-yl]pyrimidin-4-yl}-8-[(2R,3S)-3-(methanesulfonylmethyl)-2-methylazetidin-1-yl]-5-(propan-2-yl)isoquinolin-3-amine], the pIC50 in assay [1] (setting [2]) is 7.52 to 7.70.
Take `CO[C@@H]1CCN(c2nccc(Nc3cc4c(C(C)C)ccc(N5C[C@H](CS(C)(=O)=O)[C@H]5C)c4cn3)n2)C[C@H]1F` (single isomer, unassigned) [Compound 279, N-{2-[(3S,4S)-3-fluoro-4-methoxypiperidin-1-yl]pyrimidin-4-yl}-8-[(2R,3S)-3-(methanesulfonylmethyl)-2-methylazetidin-1-yl]-5-(propan-2-yl)isoquinolin-3-amine or N-{2-[(3R,4R)-3-fluoro-4-methoxypiperidin-1-yl]pyrimidin-4-yl}-8-[(2R,3S)-3-(methanesulfonylmethyl)-2-methylazetidin-1-yl]-5-(propan-2-yl)isoquinolin-3-amine]: the pIC50 in assay [1] (setting [3]) was 7.52 to 7.70.
Consider `CO[C@@H]1CCN(c2nccc(Nc3cc4c(C(C)C)ccc(N5C[C@H](CS(C)(=O)=O)[C@H]5C)c4cn3)n2)C[C@@H]1F` [Compound 122, N-(2-((3S,4R)-3-fluoro-4-methoxypiperidin-1-yl)pyrimidin-4-yl)-5-isopropyl-8-((2R,3S)-2-methyl-3-((methylsulfonyl)methyl)azetidin-1-yl)isoquinolin-3-amine], for which the pIC50 in assay [1] (setting [2]) was ≥ 8.00.
Still for that read-out and setting: under `CO[C@H]1CCN(c2nccc(Nc3cc4c(C(C)C)ccc(N5C[C@H](CS(C)(=O)=O)[C@H]5C)c4cn3)n2)C[C@H]1F` [Compound 123, N-(2-((3R,4S)-3-fluoro-4-methoxypiperidin-1-yl)pyrimidin-4-yl)-5-isopropyl-8-((2R,3S)-2-methyl-3-((methylsulfonyl)methyl)azetidin-1-yl)isoquinolin-3-amine] stands ≥ 8.00.
Consider `CO[C@H]1CCN(c2nccc(Nc3cc4c(C(C)(C)N)ccc(N5C[C@H](CS(C)(=O)=O)[C@H]5C)c4cn3)n2)C[C@H]1F` [Compound 312, 5-(2-aminopropan-2-yl)-N-(2-((3R,4S)-3-fluoro-4-methoxypiperidin-1-yl)pyrimidin-4-yl)-8-((2R,3S)-2-methyl-3-((methylsulfonyl)methyl)azetidin-1-yl)isoquinolin-3-amine], for which the pIC50 at EGFR (L858R T790M C797S) is ≥ 7.82.
